Tests used:
[1] = system: HLA-B7 (HLA-B*0702) Tg mice, CD4-depleted splenocytes; type: cell-based, mouse
[2] = system: HLA-A24/huCD8α (HLA-A*2402) Tg mice, CD4-depleted splenocytes; type: cell-based, mouse
[3] = system: HLA-DR3 (DRB1*0301) Tg mice, CD8-depleted splenocytes; type: cell-based, mouse
[4] = system: HLA-DR4/huCD4 (DRB1*0401) Tg mice, CD8-depleted splenocytes; type: cell-based, mouse
[5] = system: HLA-A2.1 (HLA-A*0201) Tg mice, CD4-depleted splenocytes; type: cell-based, mouse
[6] = system: HLA-DR2 (DRB1*1501) Tg mice, CD8-depleted splenocytes; type: cell-based, mouse
[7] = biological target: HLA-B7 (chimeric HLA-B*0702 / H-2K^d heavy chain) (human; murine) (UniProt P01902); test: cell-based or functional assay
[8] = biological target: HLA-DR4 (HLA-DRA*0101 / HLA-DRB1*0401) (human); test: cell-based or functional assay
[9] = biological target: HLA-A2.1 (HHD monochain) (human; murine); test: cell-based or functional assay
[10] = biological target: HLA-DR3 (HLA-DRA*0101 / HLA-DRB1*0301) (human); test: cell-based or functional assay
[11] = biological target: HLA-DR2 (chimeric HLA-DRA1*0101/DRB1*1501 with I-E domains) (human; murine) (UniProt Q8BHN5); test: cell-based or functional assay
UniProt Q8BHN5, sequence (Q8BHN5 whole entry, stated change not applied): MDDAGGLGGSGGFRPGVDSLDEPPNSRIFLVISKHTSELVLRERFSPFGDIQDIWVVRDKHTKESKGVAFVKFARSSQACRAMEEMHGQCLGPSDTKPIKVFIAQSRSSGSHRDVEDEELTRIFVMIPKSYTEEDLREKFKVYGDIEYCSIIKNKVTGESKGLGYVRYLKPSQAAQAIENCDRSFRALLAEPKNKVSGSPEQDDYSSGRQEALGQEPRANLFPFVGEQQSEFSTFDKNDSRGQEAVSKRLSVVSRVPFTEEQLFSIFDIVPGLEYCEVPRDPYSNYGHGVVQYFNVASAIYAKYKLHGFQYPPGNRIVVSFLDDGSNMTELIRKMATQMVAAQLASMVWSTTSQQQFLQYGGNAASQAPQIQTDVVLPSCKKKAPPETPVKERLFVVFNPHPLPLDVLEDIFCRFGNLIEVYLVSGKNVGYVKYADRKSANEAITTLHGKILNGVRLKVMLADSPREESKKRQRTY

UniProt P01902, sequence (P01902 whole entry, change not shown): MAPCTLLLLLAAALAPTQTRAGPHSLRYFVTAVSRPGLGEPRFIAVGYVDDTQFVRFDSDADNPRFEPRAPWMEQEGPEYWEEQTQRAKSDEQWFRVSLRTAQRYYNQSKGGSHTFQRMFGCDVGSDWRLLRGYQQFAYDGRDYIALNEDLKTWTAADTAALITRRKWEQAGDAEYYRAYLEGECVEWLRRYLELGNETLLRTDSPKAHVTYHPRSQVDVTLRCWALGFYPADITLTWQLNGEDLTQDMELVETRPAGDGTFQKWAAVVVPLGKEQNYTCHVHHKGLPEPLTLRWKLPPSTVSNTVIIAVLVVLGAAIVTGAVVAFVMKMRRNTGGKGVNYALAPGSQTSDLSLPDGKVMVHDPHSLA

CDIGESSSSAEVEEHRTI [NS5 145-162] was tested, and the “T cell activation of HLA transgenic mice (SFC/10^6) IFN-γ ELISpot, B7” value [1] was 50 ± 22 SFC/10^6.

DTACLAKSYAQMWLLLYF [NS5 755-772] was tested, and the “T cell activation of HLA transgenic mice (SFC/10^6) IFN-γ ELISpot, A24” value (shortened to “T cell activation of HLA transgenic mice … A24”) [2] was 132 ± 62 SFC/10^6.

For DYINTSLTSINVQASALF [NS4b 63-80], the “T cell activation of HLA transgenic mice (SFC/10^6) IFN-γ ELISpot, DR3” value (from here on “T cell activation of HLA transgenic mice … DR3”) [3] was 386 ± 60 SFC/10^6 and the “T cell activation of HLA transgenic mice (SFC/10^6) IFN-γ ELISpot, DR4” value (shortened to “T cell activation of HLA transgenic mice … DR4”) [4] was 92 ± 13 SFC/10^6.

For FACSTKAIGRTILKENIK [E 119-136], the “T cell activation of HLA transgenic mice … A24” value [2] was 179 ± 136 SFC/10^6.

With GGVLWDTPSPKEYKK [NS3 1-15] the “T cell activation of HLA transgenic mice (SFC/10^6) IFN-γ ELISpot, B7” value [1] was 45 ± 12 SFC/10^6.

With GIDTNAYYVMTVGTKTFL [E 195-212] the “T cell activation of HLA transgenic mice … A24” value [2] was 137 ± 70 SFC/10^6 and the “T cell activation of HLA transgenic mice … DR4” value [4] was 53 ± 16 SFC/10^6.

With GKLITDWCCRSCTLPPLR [NS1 305-322] the “T cell activation of HLA transgenic mice … DR3” value [3] was 557 ± 25 SFC/10^6 and the “T cell activation of HLA transgenic mice … DR4” value [4] was 109 ± 22 SFC/10^6.

In the case of IALIALLSVMTMGVFFLL [NS4a 54-71], the “T cell activation of HLA transgenic mice … A24” value [2] is reported as 70 ± 16 SFC/10^6.

ILESDLIIPVTLAGPR [NS1 236-251] was tested, and the “T cell activation of HLA transgenic mice (SFC/10^6) IFN-γ ELISpot, A2” value [5] was 78 ± 42 SFC/10^6 and the “T cell activation of HLA transgenic mice … A24” value [2] was 43 ± 18 SFC/10^6.

For ILPSVVGFWITLQYTKR [NS2b 115-131], the “T cell activation of HLA transgenic mice (SFC/10^6) IFN-γ ELISpot, A2” value [5] was 108 ± 60 SFC/10^6 and the “T cell activation of HLA transgenic mice … A24” value [2] was 56 ± 2 SFC/10^6.

LATVSDLSTKAACPTM [E 62-77] was tested, and the “T cell activation of HLA transgenic mice (SFC/10^6) IFN-γ ELISpot, A2” value [5] was 465 ± 343 SFC/10^6 and the “T cell activation of HLA transgenic mice … DR4” value [4] was 47 ± 4 SFC/10^6.

With LITAAAVTLWENGASSVW [NS4b 201-218] the “T cell activation of HLA transgenic mice … DR3” value [3] was 99 ± 26 SFC/10^6 and the “T cell activation of HLA transgenic mice … DR4” value [4] was 73 ± 8 SFC/10^6.

In the case of LVAAVIGWMLGSNTMQRV [prM 136-153], the “T cell activation of HLA transgenic mice (SFC/10^6) IFN-γ ELISpot, DR2” value (shortened to “T cell activation of HLA transgenic mice … DR2”) [6] is reported as 235 ± 9 SFC/10^6, the “T cell activation of HLA transgenic mice … DR3” value [3] is reported as 78 ± 35 SFC/10^6 and the “T cell activation of HLA transgenic mice … DR4” value [4] is reported as 327 ± 162 SFC/10^6.

For MLGSNTMQRVVFVVLLLL [prM 144-161], the “T cell activation of HLA transgenic mice … A24” value [2] was 59 ± 18 SFC/10^6, the “T cell activation of HLA transgenic mice … DR2” value [6] was 84 ± 32 SFC/10^6 and the “T cell activation of HLA transgenic mice … DR3” value [3] was 134 ± 35 SFC/10^6. The “T cell activation of HLA transgenic mice … DR4” value [4] was 315 ± 157 SFC/10^6.

In the case of NFQLMNDPGAPWKIWMLR [NS2b 84-101], the “T cell activation of HLA transgenic mice … A24” value [2] is reported as 35 ± 1 SFC/10^6.

PREHNGNEIVDVMCHATL [NS3 249-266] was tested, and the “T cell activation of HLA transgenic mice (SFC/10^6) IFN-γ ELISpot, A2” value [5] was 79 ± 27 SFC/10^6, the “T cell activation of HLA transgenic mice … DR2” value [6] was 139 ± 25 SFC/10^6 and the “T cell activation of HLA transgenic mice … DR4” value [4] was 46 ± 16 SFC/10^6.

With PTIDVKMMNMEAANLAEV [E 39-56] the “T cell activation of HLA transgenic mice … A24” value [2] was 137 ± 124 SFC/10^6.

In the case of PYSGKREDIWCGSLIGTR [NS5 842-859], the “T cell activation of HLA transgenic mice … A24” value [2] is reported as 180 ± 66 SFC/10^6.

RVVFVVLLLLVAPAYS [prM 152-167] was tested, and the “T cell activation of HLA transgenic mice (SFC/10^6) IFN-γ ELISpot, A2” value [5] was 318 ± 179 SFC/10^6, the “T cell activation of HLA transgenic mice … DR2” value [6] was 269 ± 30 SFC/10^6 and the “T cell activation of HLA transgenic mice … DR3” value [3] was 90 ± 47 SFC/10^6. The “T cell activation of HLA transgenic mice … DR4” value [4] was 117 ± 10 SFC/10^6.

With TLMEFEEPHATKQSVIAL [E 238-255] the “T cell activation of HLA transgenic mice … A24” value [2] was 122 ± 108 SFC/10^6.

In the case of TWAENIQVAINQVRAII [NS5 863-879], the “T cell activation of HLA transgenic mice … A24” value [2] is reported as 79 ± 11 SFC/10^6, the “T cell activation of HLA transgenic mice … DR3” value [3] is reported as 121 ± 2 SFC/10^6 and the “T cell activation of HLA transgenic mice … DR4” value [4] is reported as 33 ± 1 SFC/10^6.

For TWTLIKNMEKPGLKR [NS4b 241-255], the “T cell activation of HLA transgenic mice … A24” value [2] was 53 ± 32 SFC/10^6.

For VFGGITYTDVLRYVILV [NS2a 45-61], the “T cell activation of HLA transgenic mice … A24” value [2] was 243 ± 196 SFC/10^6, the “T cell activation of HLA transgenic mice … DR2” value [6] was 307 ± 119 SFC/10^6 and the “T cell activation of HLA transgenic mice … DR4” value [4] was 74 ± 11 SFC/10^6.

In the case of VLGVATFFCWMAEVPGTK [NS4a 86-103], the “T cell activation of HLA transgenic mice … A24” value [2] is reported as 65 ± 30 SFC/10^6 and the “T cell activation of HLA transgenic mice … DR4” value [4] is reported as 63 ± 1 SFC/10^6.

VMTMGVFFLLMQRKGIGK [NS4a 62-79] was tested, and the “T cell activation of HLA transgenic mice … A24” value [2] was 117 ± 39 SFC/10^6.

With WFMWLGARFLEFEALGFL [NS5 477-494] the “T cell activation of HLA transgenic mice … A24” value [2] was 198 ± 60 SFC/10^6.

WNV C 9-25 peptide showed an IFN-γ ELISpot (SFC/10^6) [7] of 43 SFC/10^6.

For WNV E 54-71 peptide, the IFN-γ ELISpot (SFC/10^6) [8] was 205 SFC/10^6.

Work on WNV E 62-77 peptide yielded an IFN-γ ELISpot (SFC/10^6) [9] of 465 SFC/10^6 and an IFN-γ ELISpot (SFC/10^6) [8] of 47 SFC/10^6.

WNV E 99-113 peptide was tested, and the IFN-γ ELISpot (SFC/10^6) [10] was 79 SFC/10^6.

Substance WNV E 127-144 peptide has an IFN-γ ELISpot (SFC/10^6) [11] of 120 SFC/10^6 and an IFN-γ ELISpot (SFC/10^6) [10] of 198 SFC/10^6.

With WNV E 135-152 peptide the IFN-γ ELISpot (SFC/10^6) [10] was 86 SFC/10^6.

WNV E 171-188 peptide was tested, and the IFN-γ ELISpot (SFC/10^6) [9] was 279 SFC/10^6 and the IFN-γ ELISpot (SFC/10^6) [7] was 996 SFC/10^6.

Work on WNV E 210-225 peptide yielded an IFN-γ ELISpot (SFC/10^6) [9] of 323 SFC/10^6 and an IFN-γ ELISpot (SFC/10^6) [7] of 519 SFC/10^6.

With WNV E 293-310 peptide the IFN-γ ELISpot (SFC/10^6) [8] was 47 SFC/10^6.

In the case of WNV E 384-399 peptide, the IFN-γ ELISpot (SFC/10^6) [10] is reported as 87 SFC/10^6.

In the case of WNV E 398-415 peptide, the IFN-γ ELISpot (SFC/10^6) [11] is reported as 168 SFC/10^6 and the IFN-γ ELISpot (SFC/10^6) [10] is reported as 88 SFC/10^6.

Work on WNV E 426-443 peptide yielded an IFN-γ ELISpot (SFC/10^6) [10] of 83 SFC/10^6.

Substance WNV E 434-451 peptide has an IFN-γ ELISpot (SFC/10^6) [11] of 116 SFC/10^6 and an IFN-γ ELISpot (SFC/10^6) [10] of 79 SFC/10^6.

WNV E 442-459 peptide showed an IFN-γ ELISpot (SFC/10^6) [9] of 442 SFC/10^6, an IFN-γ ELISpot (SFC/10^6) [11] of 117 SFC/10^6 and an IFN-γ ELISpot (SFC/10^6) [10] of 101 SFC/10^6.

Work on WNV E 465-482 peptide yielded an IFN-γ ELISpot (SFC/10^6) [9] of 310 SFC/10^6, an IFN-γ ELISpot (SFC/10^6) [11] of 490 SFC/10^6 and an IFN-γ ELISpot (SFC/10^6) [10] of 330 SFC/10^6.

— US20130011427A1 (priority 2009, published 2013)
